Source: patent US8871933B2, “Purified pyrroloquinolinyl-pyrrolidine-2,5-dione compositions and methods for preparing and using same” (ArQule, Inc., priority 2009, dated 2014)

Key:
[1] = test system: MDA-MB-231 human breast cancer cells; assay: Human breast cancer xenograft; assay type: in vivo, female athymic nude mice
Method: MDA-MB-231 human breast cancer cells were inoculated subcutaneously into female athymic nude mice (8.0×10^6 cells/mouse) and allowed to form palpable tumors. Once the tumors reached approximately 60 mm^3, the animals were treated orally with (−)-trans-3-(5,6-dihydro-4H-pyrrolo[3,2,1-ij]quinolin-1-yl)-4-(1H-indol-3-yl)pyrrolidine-2,5-dione at 200 mg/kg or vehicle control daily (5 consecutive days, followed by a 2 day dosing holiday). (−)-trans-3-(5,6-dihydro-4H-pyrrolo[3,2,1-ij]quinolin-1-yl)-4-(1H-indol-3-yl)pyrrolidine-2,5-dione was formulated in PEG 400:20% Vitamin E TPGS (60:40). The animals received a total of 20 doses of (−)-trans-3-(5,6-dihydro-4H-pyrrolo[3,2,1-ij]quinolin-1-yl)-4-(1H-indol-3-yl)pyrrolidine-2,5-dione or vehicle control. Tumors were measured throughout treatment and the post-treatment observation period. Each point represents the mean±SEM of ten tumors. (See, FIG. 8)

[2] = test system: HT-29 human colon cancer cells; assay: Human colon cancer xenograft; assay type: in vivo, female athymic nude mice; conditions: for optimal tumor growth inhibition: 20 treatments
Method: In a human colon cancer xenograft model HT-29 human colon cancer cells were inoculated subcutaneously into female athymic nude mice (5×10^6 cells/mouse) and allowed to form palpable tumors. Once the tumors reached approximately 60 mm^3, the animals were treated orally with either (−)-trans-3-(5,6-dihydro-4H-pyrrolo[3,2,1-ij]quinolin-1-yl)-4-(1H-indol-3-yl)pyrrolidine-2,5-dione at 200 mg/kg or 300 mg/kg, or vehicle control daily (5 consecutive days, followed by a 2 day dosing holiday). (−)-trans-3-(5,6-dihydro-4H-pyrrolo[3,2,1-ij]quinolin-1-yl)-4-(1H-indol-3-yl)pyrrolidine-2,5-dione was formulated in PEG 400:20% Vitamin E TPGS (60:40). The animals received a total of 20 treatments of either (−)-trans-3-(5,6-dihydro-4H-pyrrolo[3,2,1-ij]quinolin-1-yl)-4-(1H-indol-3-yl)pyrrolidine-2,5-dione or vehicle control. Tumors were measured throughout treatment and the post-treatment observation period. Each point represents the mean±SEM often tumors. (See, FIG. 9, Panel A)

Pim-1 = Pim-1 (Homo sapiens, UniProt P11309); assay: Kinase panel inhibition, Pim-1; assay type: biochemical
Sequence of Pim-1 (P11309 whole entry): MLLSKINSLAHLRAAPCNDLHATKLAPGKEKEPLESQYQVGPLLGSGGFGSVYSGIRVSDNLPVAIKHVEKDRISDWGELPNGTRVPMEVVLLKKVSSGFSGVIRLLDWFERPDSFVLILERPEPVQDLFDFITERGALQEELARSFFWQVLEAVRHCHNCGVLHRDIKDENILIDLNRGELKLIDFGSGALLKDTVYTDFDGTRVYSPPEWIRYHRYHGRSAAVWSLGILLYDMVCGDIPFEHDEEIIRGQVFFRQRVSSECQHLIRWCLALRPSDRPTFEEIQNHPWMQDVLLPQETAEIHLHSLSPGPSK
Method: (−)-trans-3-(5,6-dihydro-4H-pyrrolo[3,2,1-ij]quinolin-1-yl)-4-(1H-indol-3-yl)pyrrolidine-2,5-dione was assessed for its activity to inhibit a large panel (n=230) of human kinases.

[3] = test system: clear cell sarcoma and MiT-associated tumors; assay: Clinical study in patients with clear cell sarcoma and MiT-associated tumors; assay type: in vivo, human
Description: The present example describes the inhibition of c-Met Receptor Tyrosine Kinase in Clear Cell Sarcoma and MiT (Microphthalmia Transcription Factor)-Associated Tumors. […] The studies described in the present example used (−)-trans-3-(5,6-dihydro-4H-pyrrolo[3,2,1-ij]quinolin-1-yl)-4-(1H-indol-3-yl)pyrrolidine-2,5,-dione, a small molecule inhibitor of the c-Met receptor tyrosine kinase.
(−)-trans-3-(5,6-dihydro-4H-pyrrolo[3,2,1-ij]quinolin-1-yl)-4-(1H-indol-3-yl)pyrrolidine-2,5,-dione was administered to a patient with clear cell sarcoma. […]
(−)-trans-3-(5,6-dihydro-4H-pyrrolo[3,2,1-ij]quinolin-1-yl)-4-(1H-indol-3-yl)pyrrolidine-2,5,-dione is administered to patients with MiT (Microphthalmia Transcription Factor)-associated tumors. MiT tumors, which can include clear cell sarcoma (CCS), alveolar soft part sarcoma (ASPS) and translocation-associated renal cell carcinoma (RCC), are linked biologically through a common chromosomal abnormality that is responsible for the overexpression of c-Met resulting in the development of these tumors. Tumors with this abnormality are resistant to current therapies and, in the absence of successful surgical resection, are invariably fatal.

O=C1NC(=O)[C@@H](c2cn3c4c(cccc24)CCC3)[C@@H]1c1c[nH]c2ccccc12 (single isomer, unassigned) [(−)-trans-3-(5,6-dihydro-4H-pyrrolo[3,2,1-ij]quinolin-1-yl)-4-(1H-indol-3-yl)pyrrolidine-2,5-dione]
Tumor growth inhibition ([1]; 200 mg/kg orally, daily 5 days on / 2 days off, 20 doses, p=0.009): 79%
change in body weight ([1]; oral administration at 200 mg/kg): no significant change in body weight
optimal tumor growth inhibition ([2]; 200 mg/kg orally, p=0.006): 39%
optimal tumor growth inhibition ([2]; 300 mg/kg orally, p=0.00001): 55%
change in body weight ([2]; oral administration at 200 mg/kg or 300 mg/kg): no significant change in body weight
IC50 (Pim-1): 10 µM
inhibition at 10 µM (Pim-1; 10 μM): 33%
patients with stable disease ([3]; 120 mg b.i.d., 23 patients enrolled, fourteen evaluable for efficacy): ten of the evaluable patients have demonstrated stable disease
response as defined by RECIST ([3]; a patient with clear cell sarcoma): partial response
